Laboratory results from patent EP0933350A1, “Tricyclic retinoids, methods for their production and use” (LIGAND PHARMACEUTICALS INCORPORATED, priority 1994, dated 1996).

Legend:
TPA induction of ODC = assay: ornithine decarboxylase (ODC) assay: inhibition of TPA induction of ODC; format: cell-based; details: concentration required to inhibit the TPA induction of ODC by 80 percent
ME 180 cell line [1] = assay: incorporation of 3H-thymidine (antiproliferative); format: cell-based; details: Homo sapiens, 96 hours, radiolabeled thymidine incorporation, read-out: TdR IC50
ME 180 cell line [2] = assay: viability (tetrazolium dye, mitochondrial function); format: cell-based; details: Homo sapiens, 96 hours, read-out: MTS IC50
RPMI 8226 cell line [3] = assay: incorporation of 3H-thymidine (antiproliferative); format: cell-based; details: Homo sapiens, 96 hours, radiolabeled thymidine incorporation, read-out: TdR IC50
AML-193 cell line [4] = assay: incorporation of 3H-thymidine (antiproliferative); details: Homo sapiens, 96 h, read-out: TdR IC50 (nM)
RPMI 8226 cell line [5] = assay: viability (tetrazolium dye, mitochondrial function); format: cell-based; details: Homo sapiens, 96 hours, read-out: MTS IC50
AML-193 cell line [6] = assay: as above; format: cell-based; details: Homo sapiens, 96 hours, read-out: MTS IC50

SMILES	IC80 (TPA induction of ODC) [nM]	IC50 (ME 180 cell line [1]) [nM]	IC50 (ME 180 cell line [2]) [nM]	IC50 (RPMI 8226 cell line [3]) [nM]	IC50 (AML-193 cell line [4]) [nM]	IC50 (RPMI 8226 cell line [5]) [nM]	IC50 (AML-193 cell line [6]) [nM]
CCOC(=O)/C=C(C)/C=C/C=C1/CCCc2cc3c(cc21)C(C)(C)CCC3(C)C [Compound 101a, Ethyl (2E,4E)-3-methyl-6-[(Z)-3,4,5,6,7,8-hexahydro-5,5,8,8-tetramethyl-2H-anthracen-1-ylidene]hexa-2,4-dienoate]	91						
CC(/C=C/C=C1/CC(C)(C)Oc2cc3c(cc21)C(C)(C)CCC3(C)C)=C\C(=O)O [Compound 104b, (2E,4E)-3-Methyl-6-(2,3,6,7,8,9-hexahydro-2,2,6,6,9,9-hexamethylbenzo[b]-chromen-4-ylidene)-hexa-2,4-dienoic acid]		90	1000	30	90	90	1000
